Data reported in paper PMC6199744, “Development of Chemical Proteomics for the Folateome and Analysis of the Kinetoplastid Folateome” (ACS Infectious Diseases, 2018).
Read-outs that look alike come from different tables or passages of the source.

Experiments:
Assay type in all cases: binding
[1] = target: T1, HeLa cell extract proteins (Homo sapiens, UniProt Q14157)
T1 construct: endogenous in cells; host or cells: HeLa cell extract
T1 sequence (Q14157 1-1087): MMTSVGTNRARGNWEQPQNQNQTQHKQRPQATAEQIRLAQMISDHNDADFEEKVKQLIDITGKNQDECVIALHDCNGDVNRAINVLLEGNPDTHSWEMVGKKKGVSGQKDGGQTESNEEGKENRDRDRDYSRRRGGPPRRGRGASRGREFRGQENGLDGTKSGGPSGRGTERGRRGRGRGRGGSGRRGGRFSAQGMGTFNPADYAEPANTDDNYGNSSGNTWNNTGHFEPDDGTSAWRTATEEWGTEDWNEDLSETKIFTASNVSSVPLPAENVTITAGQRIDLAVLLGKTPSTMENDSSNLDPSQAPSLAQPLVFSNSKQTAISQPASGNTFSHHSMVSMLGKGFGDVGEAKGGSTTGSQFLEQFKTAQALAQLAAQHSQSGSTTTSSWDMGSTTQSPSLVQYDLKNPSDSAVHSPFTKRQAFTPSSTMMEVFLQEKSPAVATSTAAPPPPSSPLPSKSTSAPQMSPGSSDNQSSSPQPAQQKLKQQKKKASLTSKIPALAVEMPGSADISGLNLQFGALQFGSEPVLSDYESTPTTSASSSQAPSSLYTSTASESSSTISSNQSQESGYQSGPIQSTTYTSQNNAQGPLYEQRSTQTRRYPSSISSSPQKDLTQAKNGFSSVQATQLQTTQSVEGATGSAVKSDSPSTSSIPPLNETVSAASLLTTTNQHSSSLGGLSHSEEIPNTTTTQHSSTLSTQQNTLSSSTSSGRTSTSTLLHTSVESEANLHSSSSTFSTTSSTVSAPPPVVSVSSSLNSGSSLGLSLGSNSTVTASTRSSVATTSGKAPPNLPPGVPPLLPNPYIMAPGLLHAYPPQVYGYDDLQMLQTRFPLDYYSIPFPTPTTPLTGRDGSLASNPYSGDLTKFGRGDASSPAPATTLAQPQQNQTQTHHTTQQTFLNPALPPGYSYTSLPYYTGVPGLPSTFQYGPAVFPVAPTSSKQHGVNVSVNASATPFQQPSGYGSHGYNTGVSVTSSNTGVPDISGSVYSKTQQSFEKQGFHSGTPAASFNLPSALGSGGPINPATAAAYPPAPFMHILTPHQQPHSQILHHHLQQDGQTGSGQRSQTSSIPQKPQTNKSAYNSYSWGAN

[2] = target: T2, HeLa cell extract proteins (Homo sapiens, UniProt Q6L8Q7)
T2 construct: endogenous in cells; host or cells: HeLa cell extract
T2 sequence (Q6L8Q7 43-609): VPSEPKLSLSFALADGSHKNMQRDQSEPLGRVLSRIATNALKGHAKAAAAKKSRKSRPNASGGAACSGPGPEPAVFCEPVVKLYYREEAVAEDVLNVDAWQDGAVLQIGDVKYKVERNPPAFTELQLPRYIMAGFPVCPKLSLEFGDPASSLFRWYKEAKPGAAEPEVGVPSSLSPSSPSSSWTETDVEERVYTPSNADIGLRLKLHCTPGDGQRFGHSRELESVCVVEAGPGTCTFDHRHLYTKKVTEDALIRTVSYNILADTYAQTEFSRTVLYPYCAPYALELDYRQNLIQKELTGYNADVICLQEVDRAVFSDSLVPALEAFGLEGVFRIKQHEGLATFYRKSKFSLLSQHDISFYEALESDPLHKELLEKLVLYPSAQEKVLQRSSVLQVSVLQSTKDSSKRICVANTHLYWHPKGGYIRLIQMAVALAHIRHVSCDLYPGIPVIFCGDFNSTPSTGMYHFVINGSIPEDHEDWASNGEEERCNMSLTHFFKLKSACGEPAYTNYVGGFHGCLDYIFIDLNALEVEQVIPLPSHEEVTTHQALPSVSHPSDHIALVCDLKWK

[3] = target: T3, HeLa cell extract proteins (Homo sapiens, UniProt P35237); details: protein SERPINB6; HeLa
T3 construct: endogenous in cells; host or cells: HeLa cell extract
T3 sequence (P35237 1-376): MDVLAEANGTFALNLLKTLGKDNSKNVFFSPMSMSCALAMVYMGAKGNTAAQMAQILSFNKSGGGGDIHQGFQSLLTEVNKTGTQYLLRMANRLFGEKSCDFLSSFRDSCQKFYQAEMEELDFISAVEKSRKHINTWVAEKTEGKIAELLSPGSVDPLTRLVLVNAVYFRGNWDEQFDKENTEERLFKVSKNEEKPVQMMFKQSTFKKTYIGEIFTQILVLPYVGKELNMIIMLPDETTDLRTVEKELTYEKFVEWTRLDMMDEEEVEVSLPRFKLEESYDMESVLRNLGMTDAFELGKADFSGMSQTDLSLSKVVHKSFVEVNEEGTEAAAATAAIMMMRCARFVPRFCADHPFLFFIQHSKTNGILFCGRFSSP

Row | SMILES | fold changes relative to vehicle control ([1]; HeLa, protein UBAP2L) | fold changes relative to vehicle control ([2]; HeLa, protein PDE12) | fold changes relative to vehicle control [3] | other results
1 | Nc1nc2c(c(=O)[nH]1)N(C=O)C(CNc1ccc(C(=O)N[C@@H](CCC(=O)O)C(=O)O)cc1)CN2 (some centres unmarked) [LEU, leucovorin] | 0.9 | 0.93 | – | –
2 | Nc1nc2[nH]cc(CCc3ccc(C(=O)N[C@@H](CCC(=O)O)C(=O)O)cc3)c2c(=O)[nH]1 [PTX, pemetrexed] | – | – | – | fold changes relative to vehicle control [1]: 0.98; fold changes relative to vehicle control [2]: 1.04
3 | CCCCCCOc1ccc(Cc2cnc(N)nc2N)cc1 [compound 1] | – | – | 1.14 | –
4 | CCCCCCOc1cccc(Cc2cnc(N)nc2N)c1 [compound 2] | – | – | 1.61 | –
5 | Nc1nc2cccc(-c3ccccc3)c2n1Cc1ccc(Cl)c(Cl)c1 [compound 3] | – | – | 0.92 | –
6 | NCCOCCOCC(=O)Nc1nc2ncc(CNc3ccc(C(=O)NC(CCC(=O)O)C(=O)O)cc3)nc2c(=O)[nH]1 (centres unmarked) [compound 6] | 1.1 | 1.1 | – | –
7 | NCCCNc1ccc(C(=O)NC(CCC(=O)O)C(=O)O)cc1 (centres unmarked) [compound 7] | 1.08 | 1.34 | – | –
